# The supplement of paper PMC10307832
# Experiments:
# Assay in all cases: relative viability (nuclei count vs DMSO), 5 days (fraction); higher = more cells survive
# EKVX = system: EKVX
# Method in brief: (§1)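 One day after seeding in 1536-well plates, lung cancer cell lines were dosed by pin tool. Dosing was either single-drug or a fixed anchor-drug dose plus five library-drug doses (not always all listed) in √10 steps. After 5 days, nuclei were stained in one fix-and-stain step and counted on 4× images, and relative viability is the nuclei count of treated wells over that of vehicle wells, given as the median of duplicate plates.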
# NCI-H1355 = system: NCI-H1355
# Method in brief: as §1
# NCI-H1993 = system: NCI-H1993
# Method in brief: as §1
# NCI-H2170 = system: NCI-H2170
# Method in brief: as §1
# NCI-H1944 = system: NCI-H1944
# Method in brief: as §1
# NCI-H661 = system: NCI-H661
# Method in brief: as §1
# SK-MES-1 = system: SK-MES-1
# Method in brief: as §1
# NCI-H727 = system: NCI-H727
# Method in brief: as §1
# NCI-H1666 = system: NCI-H1666
# Method in brief: as §1
# HOP-62 = system: HOP-62
# Method in brief: as §1
# LOU-NH91 = system: LOU-NH91
# Method in brief: as §1
# NCI-H441 = system: NCI-H441
# Method in brief: as §1
# NCI-H2126 = system: NCI-H2126
# Method in brief: as §1
# BEN = system: BEN
# Method in brief: as §1
# LCLC-103H = system: LCLC-103H
# Method in brief: as §1
# HCC-827 = system: HCC-827
# Method in brief: as §1
# NCI-H647 = system: NCI-H647
# Method in brief: as §1
# PC-14 = system: PC-14
# Method in brief: as §1
# LK-2 = system: LK-2
# Method in brief: as §1
# LXF-289 = system: LXF-289
# Method in brief: as §1
# ChaGo-K-1 = system: ChaGo-K-1
# Method in brief: as §1
# NCI-H1437 = system: NCI-H1437
# Method in brief: as §1
# RERF-LC-KJ = system: RERF-LC-KJ
# Method in brief: as §1
smiles,measurement,setting,value
CN1CCN(CCOc2cc(OC3CCOCC3)c3c(Nc4c(Cl)ccc5c4OCO5)ncnc3c2)CC1 [Saracatinib] + CCNC(=O)c1noc(-c2cc(C(C)C)c(O)cc2O)c1-c1ccc(CN2CCOCC2)cc1 [Luminespib] (partner 0.01 µM),relative viability,EKVX; first compound 0.02 µM,0.812
same,relative viability,EKVX; first compound 0.6325 µM,0.883
same,relative viability,EKVX; first compound 2 µM,0.532
same,relative viability,NCI-H1355; first compound 0.02 µM,0.732
same,relative viability,NCI-H1355; first compound 0.2 µM,0.544
same,relative viability,NCI-H1355; first compound 0.6325 µM,0.697
same,relative viability,NCI-H1355; first compound 2 µM,0.634
same,relative viability,NCI-H1993; first compound 0.02 µM,0.907
same,relative viability,NCI-H1993; first compound 0.2 µM,0.716
same,relative viability,NCI-H1993; first compound 0.6325 µM,0.783
same,relative viability,NCI-H1993; first compound 2 µM,0.561
same,relative viability,NCI-H2170; first compound 0.02 µM,0.658
same,relative viability,NCI-H2170; first compound 0.2 µM,0.596
same,relative viability,NCI-H2170; first compound 0.6325 µM,0.477
same,relative viability,NCI-H2170; first compound 2 µM,0.337
same,relative viability,NCI-H1944; first compound 0.02 µM,0.826
same,relative viability,NCI-H1944; first compound 0.6325 µM,0.846
same,relative viability,NCI-H1944; first compound 2 µM,0.459
same,relative viability,NCI-H661; first compound 0.02 µM,0.948
same,relative viability,NCI-H661; first compound 0.2 µM,0.921
same,relative viability,NCI-H661; first compound 0.6325 µM,0.943
same,relative viability,NCI-H661; first compound 2 µM,0.771
same,relative viability,SK-MES-1; first compound 0.02 µM,0.627
same,relative viability,SK-MES-1; first compound 0.2 µM,0.828
same,relative viability,SK-MES-1; first compound 0.6325 µM,0.348
same,relative viability,SK-MES-1; first compound 2 µM,0.207
same,relative viability,NCI-H727; first compound 0.02 µM,0.242
same,relative viability,NCI-H727; first compound 0.2 µM,0.316
same,relative viability,NCI-H727; first compound 0.6325 µM,0.266
same,relative viability,NCI-H727; first compound 2 µM,0.239
same,relative viability,NCI-H1666; first compound 0.02 µM,1.01
same,relative viability,NCI-H1666; first compound 0.2 µM,1.09
same,relative viability,NCI-H1666; first compound 0.6325 µM,1.4
same,relative viability,NCI-H1666; first compound 2 µM,1.15
same,relative viability,HOP-62; first compound 0.02 µM,0.864
same,relative viability,HOP-62; first compound 0.2 µM,0.852
same,relative viability,HOP-62; first compound 0.6325 µM,1.04
same,relative viability,HOP-62; first compound 2 µM,1.02
same,relative viability,LOU-NH91; first compound 0.02 µM,0.356
same,relative viability,LOU-NH91; first compound 0.2 µM,0.29
same,relative viability,LOU-NH91; first compound 0.6325 µM,0.385
same,relative viability,LOU-NH91; first compound 2 µM,0.286
same,relative viability,NCI-H441; first compound 0.02 µM,0.44
same,relative viability,NCI-H441; first compound 0.2 µM,0.268
same,relative viability,NCI-H441; first compound 0.6325 µM,0.286
same,relative viability,NCI-H441; first compound 2 µM,0.247
same,relative viability,NCI-H2126; first compound 0.02 µM,0.878
same,relative viability,NCI-H2126; first compound 0.2 µM,0.895
same,relative viability,NCI-H2126; first compound 0.6325 µM,0.852
same,relative viability,NCI-H2126; first compound 2 µM,0.655
same,relative viability,BEN; first compound 0.02 µM,0.421
same,relative viability,BEN; first compound 0.6325 µM,0.418
same,relative viability,BEN; first compound 2 µM,0.401
same,relative viability,LCLC-103H; first compound 0.02 µM,1.02
same,relative viability,LCLC-103H; first compound 0.2 µM,0.902
same,relative viability,LCLC-103H; first compound 0.6325 µM,0.975
same,relative viability,LCLC-103H; first compound 2 µM,0.9
same,relative viability,HCC-827; first compound 0.02 µM,0.709
same,relative viability,HCC-827; first compound 0.2 µM,0.311
same,relative viability,HCC-827; first compound 0.6325 µM,0.241
same,relative viability,HCC-827; first compound 2 µM,0.136
same,relative viability,NCI-H647; first compound 0.02 µM,0.175
same,relative viability,NCI-H647; first compound 0.2 µM,0.171
same,relative viability,NCI-H647; first compound 0.6325 µM,0.303
same,relative viability,NCI-H647; first compound 2 µM,0.146
same,relative viability,PC-14; first compound 0.02 µM,0.175
same,relative viability,PC-14; first compound 0.2 µM,0.183
same,relative viability,PC-14; first compound 0.6325 µM,0.173
same,relative viability,PC-14; first compound 2 µM,0.227
same,relative viability,LK-2; first compound 0.02 µM,0.218
same,relative viability,LK-2; first compound 0.2 µM,0.209
same,relative viability,LK-2; first compound 0.6325 µM,0.199
same,relative viability,LK-2; first compound 2 µM,0.186
same,relative viability,LXF-289; first compound 0.02 µM,0.619
same,relative viability,LXF-289; first compound 0.2 µM,0.633
same,relative viability,LXF-289; first compound 0.6325 µM,0.796
same,relative viability,LXF-289; first compound 2 µM,0.585
same,relative viability,ChaGo-K-1; first compound 0.02 µM,0.663
same,relative viability,ChaGo-K-1; first compound 0.2 µM,0.388
same,relative viability,ChaGo-K-1; first compound 0.6325 µM,0.7
same,relative viability,ChaGo-K-1; first compound 2 µM,0.555
same,relative viability,NCI-H1437; first compound 0.02 µM,1.13
same,relative viability,NCI-H1437; first compound 0.2 µM,1.13
same,relative viability,NCI-H1437; first compound 0.6325 µM,1.17
same,relative viability,NCI-H1437; first compound 2 µM,1.14
same,relative viability,RERF-LC-KJ; first compound 0.02 µM,1.27
same,relative viability,RERF-LC-KJ; first compound 0.2 µM,1.38
same,relative viability,RERF-LC-KJ; first compound 0.6325 µM,1.29
same,relative viability,RERF-LC-KJ; first compound 2 µM,1.16
